The test system of assay [1] is iPSC-derived cardiomyocytes. The assay is described as follows: Inotropic compound screening on functionally matured iPSC-derived cardiomyocytes, xCELLigence RTCA CardioECR (Example VI, FIG. 7, FIG. 8). The class given is cell-based. The following applies: for beating rate: FIG. 7B. Here is the method: Cell monolayer preparation. The iPSC-derived cardiomyocytes were seeded at the optimal seeding density in the wells of E-plate CardioECR 48, which were pre-coated with substrate. The attachment, growth and beating activity of the cells were recorded after cell seeding in real-time using xCELLigence RTCA CardioECR station, which was placed in a 37° C. tissue culture incubator. Medium change was performed every other day.
Induction of functionally mature iPSC-derived cardiomyocytes. The electrical pacing was initiated and applied to the cell monolayer after a stable and robust beating activity of iPSC-derived cardiomyocytes is observed using xCELLigence RTCA cardioECR system. The iPSC-derived cardiomyocytes were then electrically paced at 1 Hz, 1.5 Hz and 2 Hz for 1 week respectively using xCELLigence RTCA CardioECR system. The pulse intensity and pulse duration was optimized before each pacing frequency and continuously applied to the cells. The cells were confirmed to beat at the same frequency as the pacing frequency under the pacing condition. Medium change was performed every day during chronic pacing procedure.
Inotropic compound screening. After completion of functional maturation of cardiomyocytes over the course of ramping up pacing process for 3 weeks, the inotropic compound screening was conducted. The old media was replaced with 90 μL of fresh pre-warmed media the night before compound addition. The cells will were continuously paced for an additional 12 hours at 2 Hz using the CardioECR system. The electrical pacing was terminated 6 hours prior to compound application to ensure that cells generated stable beating rate and beating amplitude for treatment. The cell beating activity is monitored and recorded in real-time on the CardioECR system.
The effective concentration ranges for the test substances were determined. The compound solution is prepared as follows. The compounds are dissolved in the appropriate solvent. If DMSO is used as the solvent, dissolve the compound in a high stock concentration if possible (ideally more than 1000-fold of the highest test concentration) and store at −20° C. Serial dilutions of compounds are prepared 1000× concentrated in appropriate solvent (DMSO or H2O). Diluted compounds are transferred to the wells of a V-bottom microtiter plate for further dilution in culture medium (10× concentrated).
The baseline of beating activity is recorded for 20 seconds every 5 minutes up to 30 minutes immediately prior to compound addition on the CardioECR system. 10 μL of 10× compound solution is added to the wells of CardioECR plate using multichannel pipette. The cell response to the compound is recorded for 20 seconds every 2 minutes immediately after compound exposure using CardioECR system. The cell beating activity, including beating rate and beating amplitude, is evaluated at 30 minutes post compound addition.

A further assay concerns iPSC cardiomyocytes. The assay is described as follows: Inotropic compound test on iPSC cardiomyocytes, xCELLigence RTCA CardioECR (Example V). The class given is cell-based. The following applies: 30 minutes post compound addition; for beating rate: FIG. 6B; for beating amplitude (positive inotropic effect): FIG. 6A. The protocol:
The functional maturation of iPSC cardiomyocytes from Example III was tested using inotropic compounds. Results are shown in FIG. 6A-B. In particular, iPSC cardiomyocytes were seeded in the wells of the CardioECR Plate (E-Plate CardioECR 48) for approximately 7 days until they formed a synchronous, stable beating monolayer. The cells were then electrically paced at 1 Hz, 1.5 Hz and 2 Hz for 1 week respectively (week 1: 1 Hz pacing; week 2: 1.5 Hz pacing; week 3: 2 Hz pacing). After pausing the 2 Hz pacing, cell media was replaced with 90 μL of fresh pre-warmed media the night before compound addition. The cells were then continuously paced for additional 8 hours at 2 Hz. The electrical pacing was terminated 5 hours prior to compound addition to ensure that cells would generate a stable beating rate and beating amplitude for treatment. The baseline beating activity was recorded for 20 seconds every 5 minutes up to 30 minutes immediately prior to compound addition. 10 μL of 10× compound solution was then added to the wells of CardioECR plate using a multichannel pipette. The cell response to the compound was recorded for 20 seconds every 2 minutes immediately after compound exposure using CardioECR system. The cell beating activity, including beating rate and beating amplitude, was evaluated at 30 minutes post compound addition.

A further assay relates to immature cardiomyocytes. To be noted: T3 treatment of immature cardiomyocytes; cited from earlier work.
[2] abbreviates: FIG. 8 panel, functional matured iCell cardiomyocytes after pacing, representative concentrations.
Where [3] appears, read: spontaneous beating cardiomyocytes.

Turning to `COC(=O)C1=C(C)NC(C)=C([N+](=O)[O-])C1c1ccccc1C(F)(F)F` (stereo not shown) [bayK], the inotropic effect result in assay [1] (setting [2]) is on record as “positive inotropic effect”.
Turning to `Cc1[nH]c(=O)c(C#N)cc1-c1ccncc1` [milrinone], the beating rate result is “slightly increased” in assay [1] (chronically paced cardiomyocytes, 30 minutes post compound addition) and “slightly increased” in assay [1] (spontaneous beating cardiomyocytes, 30 minutes post compound addition). Moreover, the beating amplitude result in assay [1] (electrically paced cardiomyocytes, 30 minutes post compound addition, FIG. 7A) is reported as “significantly increased”.
Consider `CC(C)NCC(O)c1ccc(O)c(O)c1` (stereo not shown) [isoproterenol], for which the beating rate result was “increase” in the assay with iPSC cardiomyocytes (chronically paced cardiomyocytes (1, 1.5, 2 Hz, 1 week each)) and “increase” in the assay on iPSC cardiomyocytes (setting [3]). Also, the “beating amplitude (positive inotropic effect)” value in the assay on iPSC cardiomyocytes (chronically paced cardiomyocytes) was “increase”; in the assay with iPSC cardiomyocytes (setting [3]), “only observed in paced cells”. Also, the chronotropic effect result in assay [1] (setting [2]) is reported as “positive chronotropic effect”.
`N[C@@H](Cc1cc(I)c(Oc2ccc(O)c(I)c2)c(I)c1)C(=O)O` [T3, Tri-iodo-L-thryonine]: in the assay on immature cardiomyocytes, the calcium handling properties entry is “enhanced”, the cardiomyocyte size entry was “increased”, the contractile force generation result is recorded as “increased” and the “maximal mitochondrial respiration capacity” value is listed as “increased”. In addition, in the assay on immature cardiomyocytes, the proliferation entry was “decreased” and the sarcomere length entry is reported as “increased”.
For `C[C@H]1O[C@@H](O[C@H]2[C@@H](O)C[C@H](O[C@H]3[C@@H](O)C[C@H](O[C@H]4CC[C@@]5(C)[C@H](CC[C@@H]6[C@@H]5C[C@@H](O)[C@]5(C)[C@@H](C7=CC(=O)OC7)CC[C@]65O)C4)O[C@@H]3C)O[C@@H]2C)C[C@H](O)[C@@H]1O` [digoxin], the inotropic effect result in assay [1] (setting [2]) was “positive inotropic effect”.

The values above are taken from patent publication US11746328B2, “Methods and systems for functional maturation of iPSC and ESC derived cardiomyocytes” (Agilent Technologies, Inc., priority 2017, dated 2023).
